Consider five compounds from patent US11897898B2, “Pyridine macrocycle compounds as ASK1 inhibiting agents” (BIOGEN MA INC., priority 2018, dated 2024).

pIC50: −log10 of the molar value.

Assay [1] has as its target T1, ASK1 T838 auto phosphorylation (Homo sapiens, UniProt Q99683).
T1 construct: ASK1-V5 tagged full length plasmid; expressed in transfected cells; host or cells: HEK-293T
T1 sequence (Q99683 1-1374): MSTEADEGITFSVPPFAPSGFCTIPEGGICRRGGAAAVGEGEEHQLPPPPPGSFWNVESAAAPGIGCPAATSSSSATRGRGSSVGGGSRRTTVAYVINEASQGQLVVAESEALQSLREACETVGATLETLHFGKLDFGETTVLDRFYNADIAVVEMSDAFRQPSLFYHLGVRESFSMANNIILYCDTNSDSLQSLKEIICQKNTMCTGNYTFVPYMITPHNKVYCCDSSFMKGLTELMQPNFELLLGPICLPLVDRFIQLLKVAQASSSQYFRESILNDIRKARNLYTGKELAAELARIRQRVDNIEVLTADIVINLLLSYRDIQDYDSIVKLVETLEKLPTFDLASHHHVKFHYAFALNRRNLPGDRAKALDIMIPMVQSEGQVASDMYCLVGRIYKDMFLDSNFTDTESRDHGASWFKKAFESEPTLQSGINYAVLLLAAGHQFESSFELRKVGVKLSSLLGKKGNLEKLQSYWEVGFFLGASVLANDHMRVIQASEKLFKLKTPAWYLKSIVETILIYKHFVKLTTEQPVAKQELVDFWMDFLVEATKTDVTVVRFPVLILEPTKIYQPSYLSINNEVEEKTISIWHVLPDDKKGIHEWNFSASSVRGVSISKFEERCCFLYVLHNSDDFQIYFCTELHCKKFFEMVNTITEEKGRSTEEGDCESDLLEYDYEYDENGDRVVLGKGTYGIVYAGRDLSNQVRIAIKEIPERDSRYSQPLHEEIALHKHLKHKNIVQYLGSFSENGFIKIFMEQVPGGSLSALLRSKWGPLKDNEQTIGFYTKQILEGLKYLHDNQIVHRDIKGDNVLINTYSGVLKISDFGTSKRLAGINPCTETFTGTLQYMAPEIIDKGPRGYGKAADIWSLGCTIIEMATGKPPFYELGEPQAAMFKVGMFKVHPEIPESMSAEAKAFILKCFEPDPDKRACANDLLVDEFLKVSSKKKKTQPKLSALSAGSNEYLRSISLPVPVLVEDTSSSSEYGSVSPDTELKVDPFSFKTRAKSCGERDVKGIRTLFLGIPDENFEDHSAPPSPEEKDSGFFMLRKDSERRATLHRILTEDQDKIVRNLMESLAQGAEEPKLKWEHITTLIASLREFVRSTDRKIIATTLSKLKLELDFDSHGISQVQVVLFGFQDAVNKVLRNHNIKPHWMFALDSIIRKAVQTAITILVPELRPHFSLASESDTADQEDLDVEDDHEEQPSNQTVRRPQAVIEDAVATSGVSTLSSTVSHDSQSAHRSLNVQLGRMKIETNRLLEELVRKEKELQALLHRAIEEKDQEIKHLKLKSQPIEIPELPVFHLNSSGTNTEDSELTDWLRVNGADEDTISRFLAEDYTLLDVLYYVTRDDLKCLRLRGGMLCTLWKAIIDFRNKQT
Kind of assay: ASK1 (AUTO PHOS T838) assay in HEK-293T cells, MSD format. The assay is classed as cell-based. As to conditions: HEK-293T cells transfected with ASK1-V5, 1 hr compound incubation; class symbols. The method, boiled down:
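HEK-293T cells transiently expressing full-length V5-tagged ASK1, treated 1 h at 37 °C with compound (top 20 µM, 3-fold, 10 points). Lysates captured on anti-V5 and probed with anti-pASK1 T838 in MSD electrochemiluminescence format. IC50 from 4-parameter fit of normalized % activity.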

The target of a further assay is T2, ASK1/MAP3K5 (Homo sapiens, UniProt Q99683).
T2 construct: purchased Reaction Biology Corp. (Malvern, Pa.)
T2 sequence (Q99683 1-1374): T1 sequence (Q99683 1-1374)
Briefly: ASK1 enzyme assay (ASK1/MAP3K5 assay by Reaction Biology Corp., 33P-ATP filter-binding). Format: biochemical. As to conditions: 20 μM myelin basic protein and 10 μM ATP; class symbols. The method, boiled down: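 Human ASK1/MAP3K5 in pH 7.5 Hepes buffer with 20 μM myelin basic protein and 10 μM 33P-ATP; compounds preincubated with kinase 20 min at room temperature. Reaction ran 2 h at room temperature; substrate phosphorylation measured by P81 filter binding.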

As a reminder, the pIC50 is the IC50 on a negative log10 scale, so that one unit is a factor of ten. In the case of `C[C@H]1CCCOc2ncc(Br)cc2C(=O)Nc2cccc(n2)-c2nncn21` (single isomer, unassigned) [Compound 1], the pIC50 (in assay [1]; at ASK1/MAP3K5) was at least 7.00 throughout.
Consider `C[C@H]1CCCOc2ncc(C(F)(F)F)cc2C(=O)Nc2cccc(n2)-c2nncn21` (single isomer, unassigned) [Compound 41], for which the pIC50 in assay [1] was 6.00 to 7.00; on ASK1/MAP3K5 it was at least 7.00.
Consider `C[C@H]1CCCOc2ncccc2C(=O)Nc2cccc(n2)-c2nncn21` (single isomer, unassigned) [Compound 4], for which the pIC50 in assay [1] was 6.00 to 7.00; at ASK1/MAP3K5, at least 7.00.
As to `C[C@H]1CCCOc2ncc(C#N)cc2C(=O)Nc2cccc(n2)-c2nncn21` [Compound 38, (S)-10-Methyl-4-oxo-1^4H-6-oxa-3-aza-2(2,6),5(3,2)-dipyridina-1(3,4)-triazolacyclodecaphane-5^5-carbonitrile], the pIC50 in assay [1] was 6.00 to 7.00; at ASK1/MAP3K5, at least 7.00.
On the same counts, the results for `C[C@H]1CCCOc2ncc(-c3ccncc3)cc2C(=O)Nc2cccc(n2)-c2nncn21` [Compound 17, (S)-10-Methyl-5^5-(pyridin-4-yl)-1^4H-6-oxa-3-aza-2(2,6),5(3,2)-dipyridina-1(3,4)-triazolacyclodecaphan-4-one] are at least 7.00 and at least 7.00.
